The IC50 is the concentration that gives 50% inhibition. As usually defined, the half-life is the time in which the quantity being followed falls by half. Lower therefore signals rapid decline. By EC50 is commonly meant the concentration giving half of the maximal effect.

A value given as a limit tells only on which side of the number the result lay.

These results are taken from article PMC5797143, “Epigenetic modulation of inflammation and synaptic plasticity promotes resilience against stress in mice” (Nature Communications, 2018).

Data set [1] addresses T1, CYP2B6 (Homo sapiens, UniProt P20813).
T1 construct: from tissue; host or cells: human liver microsomes
In words: CYP inhibition in human liver microsomes. The class given is in vitro ADME. Particulars: read-out: CPY450 inhibition (IC50), CYP2B6. The procedure: (§1) CYP inhibition was tested in isolated microsomes for CYP2D6, CYP3A4, CYP1A2, CYP2C9, CYP2C19, CYP2C8, and CYP2B6[66]. Briefly, increasing concentrations of Mal-gluc or DHCA were incubated with human liver microsomes (HLM) in the presence of 2 mM NADPH in 100 mM potassium phosphate (pH 7.4) containing 5 mM magnesium chloride and a specific probe substrate for different CYPs: tacrine (CYP1A2), amodiaquine (CYP2C8), tolbutamide (CYP2C9), S-mephenytoin (CYP2C19), dextromethorphan (CYP2D6), midazolam/testosterone (CYP3A4/5), or bupropion (CYP2B6). CYP-specific inhibitors were included alongside the test compound as a positive control, including α-naphthoflavone (CYP1A2), quercetin (CYP2C8), ketoconazole (CYP3A4/5), quinidine (CYP2D6), sulfaphenazole (CYP2C9), and ticlopidine (CYP2C19, CYP2B6). After incubation at 37 °C, the reactions were terminated by addition of a methanol-containing internal standard (propranolol) for analytical quantification. The quenched samples were then incubated at 4 °C for 10 min and centrifuged at 4 °C for 10 min. The supernatant was removed and the probe substrate metabolite was analyzed by LC-MS/MS (Agilent Technologies Triple Quad LC-MS/MS).
(In general: Microsomes from liver hold many membrane-bound enzymes, among them those of drug oxidation.)

Data set [2] addresses T2, CYP2C19 (Homo sapiens, UniProt P33261).
T2 construct: from tissue; host or cells: human liver microsomes
In words: CYP inhibition in human liver microsomes. The format is in vitro ADME. Particulars: read-out: CPY450 inhibition (IC50), CYP2C19. The procedure:
as §1

For data set [3], the target named is T3, CYP1A2 (Homo sapiens, UniProt P05177).
T3 construct: from tissue; host or cells: human liver microsomes
In words: CYP inhibition in human liver microsomes. Particulars: read-out: CPY450 inhibition (IC50), CYP1A2. The format is in vitro ADME. The method, then:
as §1

The target in data set [4] is T4, CYP2D6 (Homo sapiens, UniProt P10635).
T4 construct: from tissue; host or cells: human liver microsomes
The experiment in a line: CYP inhibition in human liver microsomes. The note with it: read-out: CPY450 inhibition (IC50), CYP2D6. The format is in vitro ADME. The procedure:
as §1

A short description of data set [5]: Brain homogenate stability. The format is in vitro ADME. The method, then: Compound stability in mouse and human plasma and in mouse brain homogenate were conducted, [45]. Specifically, Mal-gluc or DHCA was incubated in duplicate with plasma at 37 °C and samples were taken at various time points and mixed with three volumes of ice-cold Stop Solution (methanol containing propranolol, diclofenac, or other internal standard). Samples were centrifuged to remove precipitated protein, and the supernatants were analyzed by LC/MS/MS to quantitate for remaining test compound. Data are converted to percentage remaining by dividing by the time zero concentration value. Data are fit to a first-order decay model to determine half-life. Plasma protein binding were conducted using both mouse and human plasma.

Data set [6] concerns IL-6. In words: LPS-induced IL-6 production in PBMCs (screening, dose response). The format is cell-based, mouse. The source says:
BDPP contains a variety of polyphenols. Orally consumed polyphenols are typically bioavailable in various organs and tissues as metabolites (phase II polyphenol conjugates and phenolic acids) following xenobiotic metabolism and gastrointestinal microbiome fermentation. It is possible that some metabolites may counteract the positive effect of the others. Therefore, if supplied as BDPP, the overall benefits might be reduced due to potential ‘cancellation’ effects. By identifying individual metabolites that selectively target key pathological mechanisms (e.g., Rac1 and IL-6) we can greatly improve the efficacy. We and others recently identified 21 BDPP-derived phenolic metabolites that accumulate in blood and/or in the CNS (14 polyphenolic metabolites and 7 phenolic acids, Supplementary Table 1)[25], [28], [33], among which 14 are currently accessible, [34]. We initiated a high-throughput screen of these metabolites for their ability to modulate IL-6 and Rac1. Peripheral blood mononuclear cells (PBMCs) isolated from C57BL/6 mice were pretreated with plasma bioavailable metabolites (Supplementary Table 1) for 16 h followed by stimulation with lipopolysaccharide (LPS) for 16 h. […] In parallel studies, we screened 9 brain bioavailable metabolites using E18 MSN-enriched primary culture.
Whole blood from mice was mixed with complete RPMI media and laid over the Ficoll-Paque Plus (GE Healthcare, Sweden), centrifuged at 2200 r.p.m. for 15 min. The buffy coat containing PBMCs were isolated, washed once with BEP (0.5% BSA, 2 mM EDTA in PBS) and plated out in a 24-well plate at 5 × 10^5/well in culture medium RPMI-1640 supplemented with 20% horse serum, 10% FBS, 2 mM L-glutamine, 25 mM Hepes and 100 U/ml penicillin/streptomycin. PBMCs were treated with various phenolic acids for 16 h and challenged with 7.5 µg/ml LPS. Supernatant was collected by centrifugation following 16 h of LPS stimulation and the levels of IL-6 were measured using the Mouse IL-6 Quantikine ELISA Kit from R & D System.

Data set [7] deals with enzymes involved in de novo methylation and demethylation. In words: Expression of de novo methylation/demethylation enzymes in MSN-enriched primary culture. The format is cell-based, mouse. The note with it: MSN-enriched primary cultures. The source says:
Stress-induced reduction of Rac1 expression is associated with a repressed chromatin state surrounding the promoter region of Rac1 in the NAc[11]. Since Mal-gluc can cross the BBB, we hypothesized that Mal-gluc may promote Rac1 expression, in part, by modulating chromatin acetylation. We first assessed the effect of Mal-gluc on HDACs that play key roles in chromatin deacetylation. […] Using site directed quantitative chromatin immunoprecipitation (qCHIP), we examined the permissive histone H3 acetylation (AcH3) in Mal-gluc treated MSN-enriched primary cultures.
Total RNA from MSN-enriched cultures or brain NAc was isolated using the RNeasy Mini Kit (Qiagen, Valencia, CA, USA) and reverse transcribed. Gene expression was measured in four replicates by quantitative RT-PCR using Maxima SYBR Green master mix (Fermentas) in ABI Prism 7900HT. Primer sequences are listed in Supplementary Table 2. Mouse hypoxanthine phosphoribosyltransferase (HPRT) expression level was used as an internal control. Data were normalized using the 2^-ΔΔCt method. Levels of target gene mRNAs were expressed relative to those in control cultures or mice and plotted in GraphPad Prism.

T1 sequence (P20813 whole entry): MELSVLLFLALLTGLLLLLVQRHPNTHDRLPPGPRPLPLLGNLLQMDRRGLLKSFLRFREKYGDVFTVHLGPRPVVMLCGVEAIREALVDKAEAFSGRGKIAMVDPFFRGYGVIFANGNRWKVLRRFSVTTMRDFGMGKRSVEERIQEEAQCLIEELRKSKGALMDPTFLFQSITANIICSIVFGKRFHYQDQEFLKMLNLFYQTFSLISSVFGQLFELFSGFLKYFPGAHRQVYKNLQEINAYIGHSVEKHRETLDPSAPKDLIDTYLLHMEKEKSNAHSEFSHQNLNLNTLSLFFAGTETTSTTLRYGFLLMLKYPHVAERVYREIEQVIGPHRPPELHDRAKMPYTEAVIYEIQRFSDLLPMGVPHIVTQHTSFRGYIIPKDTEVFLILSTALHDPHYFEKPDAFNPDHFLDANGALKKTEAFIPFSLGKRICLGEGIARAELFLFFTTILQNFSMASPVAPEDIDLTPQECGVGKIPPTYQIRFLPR
T2 sequence (P33261 whole entry): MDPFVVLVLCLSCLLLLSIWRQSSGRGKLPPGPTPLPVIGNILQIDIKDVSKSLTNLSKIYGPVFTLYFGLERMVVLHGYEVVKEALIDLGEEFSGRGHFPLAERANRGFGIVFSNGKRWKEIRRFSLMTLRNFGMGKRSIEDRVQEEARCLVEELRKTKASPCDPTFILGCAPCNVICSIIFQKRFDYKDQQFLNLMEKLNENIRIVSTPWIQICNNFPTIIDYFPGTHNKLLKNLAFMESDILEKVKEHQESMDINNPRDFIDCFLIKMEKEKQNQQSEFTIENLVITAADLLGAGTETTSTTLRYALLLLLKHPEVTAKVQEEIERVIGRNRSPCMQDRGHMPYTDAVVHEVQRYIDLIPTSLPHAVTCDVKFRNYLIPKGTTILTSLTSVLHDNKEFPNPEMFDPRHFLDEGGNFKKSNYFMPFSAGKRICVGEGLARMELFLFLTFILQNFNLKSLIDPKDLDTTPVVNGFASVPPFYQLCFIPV
T3 sequence (P05177 whole entry): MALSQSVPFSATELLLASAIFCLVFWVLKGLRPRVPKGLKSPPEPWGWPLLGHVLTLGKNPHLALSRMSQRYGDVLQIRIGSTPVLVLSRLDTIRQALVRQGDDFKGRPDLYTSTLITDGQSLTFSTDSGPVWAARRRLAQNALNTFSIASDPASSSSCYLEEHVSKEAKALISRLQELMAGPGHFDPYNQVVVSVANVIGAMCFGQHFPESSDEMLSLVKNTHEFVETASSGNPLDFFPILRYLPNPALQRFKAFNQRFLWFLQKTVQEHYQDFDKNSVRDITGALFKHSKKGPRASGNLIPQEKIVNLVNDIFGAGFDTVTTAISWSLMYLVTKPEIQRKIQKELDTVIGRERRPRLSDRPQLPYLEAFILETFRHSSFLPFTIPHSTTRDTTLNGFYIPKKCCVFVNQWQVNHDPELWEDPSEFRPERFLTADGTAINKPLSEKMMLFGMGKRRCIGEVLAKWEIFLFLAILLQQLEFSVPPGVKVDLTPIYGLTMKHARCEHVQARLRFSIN
T4 sequence (P10635 whole entry): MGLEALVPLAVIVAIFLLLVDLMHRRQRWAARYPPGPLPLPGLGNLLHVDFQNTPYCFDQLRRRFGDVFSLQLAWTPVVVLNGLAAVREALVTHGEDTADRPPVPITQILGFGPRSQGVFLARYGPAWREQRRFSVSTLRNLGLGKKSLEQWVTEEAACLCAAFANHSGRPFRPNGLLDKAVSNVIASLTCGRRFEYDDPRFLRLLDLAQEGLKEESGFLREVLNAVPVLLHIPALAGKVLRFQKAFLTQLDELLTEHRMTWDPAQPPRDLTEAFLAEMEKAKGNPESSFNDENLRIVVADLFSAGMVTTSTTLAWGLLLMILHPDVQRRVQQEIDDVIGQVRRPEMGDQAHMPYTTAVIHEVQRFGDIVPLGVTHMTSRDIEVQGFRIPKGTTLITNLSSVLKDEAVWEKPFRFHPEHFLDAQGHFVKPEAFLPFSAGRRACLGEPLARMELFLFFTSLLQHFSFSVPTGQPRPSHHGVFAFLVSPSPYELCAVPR

On to `O=C(O)CCc1ccc(O)c(O)c1` [DHCA, 3(3,4-dihydroxy-phenyl) propionic acid], for which the half-inhibitory concentration (IC50) is > 25 µM in data set [1]; > 25 µM in data set [2]; > 25 µM in data set [3]; > 25 µM in data set [4]; 17.7 µM in data set [6] (Mus musculus, PBMC, PBMCs pretreated 16 h, then LPS 16 h, read-out: calculated IC50, reducing LPS-induced IL-6 production). This compound also registered a half-life in data set [5] (mouse) of 16.1 min. In addition, the “primary screening, LPS-induced IL-6 production” value in data set [6] (14 plasma bioavailable metabolites screened) is recorded as “most effective in reducing LPS-induced IL-6 production”. Besides, the concentration for a half-maximal effect (EC50) in data set [6] (Mus musculus, PBMC, dose response in PBMCs following LPS stimulation, read-out: EC50 (IL-6 response), Fig. 2b) amounted to 17.7 µM.
As to `COc1cc(-c2[o+]c3cc(O)cc(O)c3cc2O[C@@H]2O[C@H](CO)[C@@H](O)[C@H](O)[C@H]2O)cc(OC)c1O` [Mal-gluc], the IC50 in data set [1], in data set [2], in data set [3] and in data set [4] was > 25 µM each time. Moreover, the “Brain homogenate stability, Half-life (mouse homogenate)” value in data set [5] was 29.4 min. In addition, the “expression of enzymes of de novo methylation and demethylation” value in data set [7] is “did not affect”.
